Measurements published in US9643967B2, “Pyrrolo[3,2-c]pyridine derivatives as TLR inhibitors” (TAKEDA PHARMACEUTICAL COMPANY LIMITED, priority 2013, dated 2017).

Molecular target: T1, hTLR9 (Homo sapiens, UniProt Q9NR96)
T1 construct: expressed in transfected cells; host or cells: HEK-Blue-hTLR9 cells (HEK293)
T1 sequence (Q9NR96 26-1032): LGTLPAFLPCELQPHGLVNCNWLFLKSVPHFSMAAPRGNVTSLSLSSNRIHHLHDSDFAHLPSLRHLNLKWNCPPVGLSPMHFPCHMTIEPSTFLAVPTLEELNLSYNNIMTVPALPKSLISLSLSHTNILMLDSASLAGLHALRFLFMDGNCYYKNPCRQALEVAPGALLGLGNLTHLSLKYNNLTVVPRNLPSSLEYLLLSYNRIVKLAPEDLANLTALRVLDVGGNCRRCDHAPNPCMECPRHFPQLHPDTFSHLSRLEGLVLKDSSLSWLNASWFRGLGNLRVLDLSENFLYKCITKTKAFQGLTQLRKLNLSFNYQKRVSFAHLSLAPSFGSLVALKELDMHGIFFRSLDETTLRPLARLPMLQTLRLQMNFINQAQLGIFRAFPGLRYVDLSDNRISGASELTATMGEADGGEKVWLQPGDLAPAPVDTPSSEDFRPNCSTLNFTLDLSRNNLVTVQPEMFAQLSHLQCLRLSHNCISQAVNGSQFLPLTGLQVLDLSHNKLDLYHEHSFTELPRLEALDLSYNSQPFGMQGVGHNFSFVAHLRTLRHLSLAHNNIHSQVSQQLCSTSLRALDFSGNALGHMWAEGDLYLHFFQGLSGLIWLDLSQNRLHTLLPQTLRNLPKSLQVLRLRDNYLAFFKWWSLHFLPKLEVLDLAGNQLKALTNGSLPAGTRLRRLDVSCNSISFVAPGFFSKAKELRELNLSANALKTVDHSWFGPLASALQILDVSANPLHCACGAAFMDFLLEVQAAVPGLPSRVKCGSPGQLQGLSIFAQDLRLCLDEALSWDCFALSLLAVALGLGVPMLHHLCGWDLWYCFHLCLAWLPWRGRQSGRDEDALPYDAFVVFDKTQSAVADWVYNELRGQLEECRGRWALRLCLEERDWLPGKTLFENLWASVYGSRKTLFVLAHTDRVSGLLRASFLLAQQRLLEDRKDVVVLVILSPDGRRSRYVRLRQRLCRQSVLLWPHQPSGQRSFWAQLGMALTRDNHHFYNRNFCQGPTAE
Experiment: hTLR9 antagonism (SEAP inhibition assay) in HEK-Blue-hTLR9 (HEK293) cells, ODN-2006 stimulated
Format: cell-based
Conditions: HEK-Blue hTLR9, 1 μM; SEAP, HEK-Blue-hTLR9 cells; read-out: hTLR9 inhibitory activity (% at 1 μM)
Description: hTLR9 Antagonism (SEAP Inhibition Assay) in HEK293 Cell Lines
The SEAP reporter gene in HEK-Blue™-hTLR9 cells is placed under the control of the IFN-b minimal promoter fused to five NF-kB and AP-1 binding sites. The stimulation with a TLR9 ligand (ODN-2006) activates NF-kB and AP-1 which induces the production of SEAP. Levels of SEAP are determined with QUANTI-Blue™ detection medium that turns purple/blue in the presence of alkaline phosphatase. Decrease in the levels of SEAP production as indicated by reduction in absorbance at 650 nm is directly co-related with the TLR9 inhibitory activity of the antagonist (NCE).
HEK-Blue™-hTLR9 cells were maintained in DMEM with 10% FBS, 1% Penicillin/Streptomycin/Amphotericin (complete growth medium) and 0.2% Normocin. For the assay, cells were dissociated by washing in 1×PBS and re-suspended in complete DMEM. Cells were seeded at a density of 20000 cells per well; (40 μl per well) in a 384 well assay plate.
5 μl of 10× antagonist (NCE) was added to the cells in triplicates for each concentration. The plate was incubated for half an hour at 37° C. with 5% CO2. 5 μl of agonist (ODN-2006) was added and the plate was incubated overnight for 18 hours at 37° C. with 5% CO2. 5 μl of supernatant was transferred to a 384 well reading plate and to this 45 μl of Quanti-Blue™ detection reagent was added. The plate was then incubated for an hour at 37° C. SEAP activity in the supernatant was indicated by change in the pink color of Quanti-Blue™ detection reagent to purple/blue and the absorbance was read at 650 nm in the end point mode.

SMILES	inhibition at 1 µM
CC1(O)CCN(c2ccc(-c3nccc4[nH]c(CN5CCOCC5)cc34)cc2)CC1 [Example A10, 4-methyl-1-[4-[2-(morpholinomethyl)-1H-pyrrolo[3,2-c]pyridin-4-yl]phenyl] piperidin-4-ol]	29%
C1=C(c2ccc(-c3nccc4[nH]c(CN5CCOCC5)cc34)cc2)CCN(C2COC2)C1 [Example A11, 4-[[4-[4-[1-(oxetan-3-yl)-3,6-dihydro-2H-pyridin-4-yl]phenyl]-1H-pyrrolo[3,2-c]pyridin-2-yl]methyl] morpholine]	77.5%
CC(C)N1CCN(c2ccc(-c3nccc4[nH]c(CN5CCC(F)(F)C5)cc34)cc2)CC1 [Example A18, 2-[(3,3-difluoropyrrolidin-1-yl)methyl]-4-[4-(4-isopropylpiperazin-1-yl)phenyl]-1H-pyrrolo[3,2-c]pyridine]	100%
CC(C)N1CCN(C(=O)c2ccc(-c3nccc4[nH]c(CN5CCOCC5)cc34)cc2)CC1 [Example A19, (4-isopropylpiperazin-1-yl)-[4-[2-(morpholinomethyl)-1H-pyrrolo[3,2-c]pyridin-4-yl]phenyl] methanone]	90%
CN1CCN(C(=O)c2ccc(-c3nccc4[nH]c(CN5CCOCC5)cc34)cc2)CC1 [Example A22, (4-methylpiperazin-1-yl)-[4-[2-(morpholinomethyl)-1H-pyrrolo[3,2-c]pyridin-4-yl]phenyl] methanone]	62%
Cc1cc2[nH]c(CN3CCC(F)CC3)cc2c(-c2ccc(N3CCN(C(C)C)CC3)cc2)n1 [Example A27, 2-[(4-fluoro-1-piperidyl)methyl]-4-[4-(4-isopropylpiperazin-1-yl)phenyl]-6-methyl-1H-pyrrolo[3,2-c]pyridine]	96.4%
CN1CCN(c2ccc(-c3nc(C(F)(F)F)cc4[nH]c(CN5CCOCC5)cc34)cc2)CC1 [Example A31, 4-[[4-[4-(4-methylpiperazin-1-yl)phenyl]-6-(trifluoromethyl)-1H-pyrrolo[3,2-c]pyridin-2-yl]methyl] morpholine]	66%
CC(C)N1CCN(c2ccc(-c3nc(C(F)(F)F)cc4[nH]c(CN5CCOCC5)cc34)cc2)CC1 [Example A32, 4-[[4-[4-(4-isopropylpiperazin-1-yl)phenyl]-6-(trifluoromethyl)-1H-pyrrolo[3,2-c]pyridin-2-yl]methyl] morpholine]	49%
c1cc2[nH]c(CN3CCOCC3)cc2c(-c2cnn(C3CCNCC3)c2)n1 [Example A45, 4-[[4-[1-(4-piperidyl)pyrazol-4-yl]-1H-pyrrolo [3,2-c]pyridin-2-yl]methyl] morpholine]	76.1%
c1cc(-c2nccc3[nH]c(CN4CCOCC4)cc23)cc(N2CCNCC2)c1 [Example A46, 4-[[4-(3-(piperazin-1-yl)phenyl)-1H-pyrrolo[3,2-c]pyridin-2-yl]methyl] morpholine]	83.5%
CC(C)N1CCN(c2ncc(-c3nccc4[nH]c(CN5CCOCC5)cc34)s2)CC1 [Example A58, 4-[[4-[2-(4-isopropylpiperazin-1-yl)thiazol-5-yl]-1H-pyrrolo[3,2-c]pyridin-2-yl]methyl]morpholine]	98%
CN1CCN(c2ccc(-c3nccc4[nH]c(CN5CCOCC5)cc34)cn2)CC1 [Example A59, 4-[[4-[6-(4-methylpiperazin-1-yl)-3-pyridyl]-1H-pyrrolo[3,2-c]pyridin-2-yl]methyl]morpholine]	94.7%
c1cc2[nH]c(CN3CCOCC3)cc2c(-c2ccc(C3CCN(C4COC4)CC3)cc2)n1 [Example A65, 4-[[4-[4-[1-(oxetan-3-yl)-4-piperidyl]phenyl]-1H-pyrrolo[3,2-c]pyridin-2-yl]methyl] morpholine]	70.5%
COC(=O)C1CCN(c2ccc(-c3nccc4[nH]c(CN5CCOCC5)cc34)cc2)CC1 [Example A67, methyl 1-[4-[2-(morpholinomethyl)-1H-pyrrolo[3,2-c]pyridin-4-yl]phenyl]piperidine-4-carboxylate]	27.5%
O=C(O)C1CCN(c2ccc(-c3nccc4[nH]c(CN5CCOCC5)cc34)cc2)CC1 [Example A68, 1-[4-[2-(morpholinomethyl)-1H-pyrrolo[3,2-c]pyridin-4-yl]phenyl]piperidine-4-carboxylic acid]	21%
OC1CCN(c2ccc(-c3nccc4[nH]c(CN5CCOCC5)cc34)cc2)CC1 [Example A69, 1-[4-[2-(morpholinomethyl)-1H-pyrrolo[3,2-c]pyridin-4-yl]phenyl]piperidin-4-ol]	73.5%
CC(C)N1CCN(c2ccc(-c3nccc4[nH]c(CN5CCOCC5)c(Cl)c34)cc2)CC1 [Example A71, 4-[[3-chloro-4-[4-(4-isopropylpiperazin-1-yl)phenyl]-1H-pyrrolo[3,2-c]pyridin-2-yl]methyl]morpholine]	86.1%
COC(=O)[C@H]1CCCN1Cc1cc2c(-c3ccc(N4CCN(C(C)C)CC4)cc3)nccc2[nH]1 [Example A73, methyl (2R)-1-[[4-[4-(4-isopropyl-piperazin-1-yl)phenyl]-1H-pyrrolo[3,2-c]pyridin-2-yl]methyl]pyrrolidine-2-carboxylate]	72%
FC(F)(F)CN1CCN(c2ccc(-c3nccc4[nH]c(CN5CCOCC5)cc34)cc2)CC1 [Example A75, 4-[[4-[4-[4-(2,2,2,2-trifluoroethyl)piperazin-1-yl]phenyl]-1H-pyrrolo[3,2-c]pyridin-2-yl]methyl]morpholine]	34.9%
c1cc2[nH]c(CN3CCOCC3)cc2c(-c2ccc(N3CCN(Cc4cocn4)CC3)cc2)n1 [Example A76, 4-[[4-[4-[4-(oxazol-4-ylmethyl)piperazin-1-yl]phenyl]-1H-pyrrolo[3,2-c]pyridin-2-yl]methyl]morpholine]	81.2%
CC(C)N1CCN(C2CCC(c3nccc4[nH]c(CN5CCOCC5)cc34)CC2)CC1 (stereo not drawn) [Example A79, 4-[[4-[4-(4-isopropylpiperazin-1-yl)cyclohexyl]-1H-pyrrolo[3,2-c]pyridin-2-yl]methyl]morpholine]	100%
c1cc2[nH]c(CN3CCOCC3)cc2c(-c2ccc(N3CCOCC3)cc2)n1 [Example A83, 4-[4-[2-(morpholinomethyl)-1H-pyrrolo[3,2-c]pyridin-4-yl]phenyl]morpholine]	29.5%
Cc1nc(-c2ccc(N3CCN(C(C)C)CC3)cc2)c2cc(CCN3CCCCC3)[nH]c2c1C [Example B9, 4-[4-(4-isopropylpiperazin-1-yl)phenyl]-6,7-dimethyl-2-[2-(1-piperidyl)ethyl]-1H-pyrrolo[3,2-c]pyridine]	95.2%
Cc1cc2[nH]c(CCCN3CCOCC3)cc2c(-c2ccc(N3CCN(C)CC3)cc2)n1 [Example C4, 4-[3-[6-methyl-4-[4-(4-methylpiperazin-1-yl)phenyl]-1H-pyrrolo[3,2-c]pyridin-2-yl]propyl]morpholine]	98.7%
